From the supplement of paper PMC5412046
Structures can show the parent of a compound that is named as a salt.

Test system: SB.msgc-1
Assay: AC50 for growth inhibition (viability) (log10 M); higher = less potent
Settings: SB.msgc-1 (sporadic gastric cancer)
In short: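 Hereditary or sporadic patient-derived gastric cancer cells (500 cells in 5 μL medium per 1536 well) received 23 nL compound in DMSO by pintool. Dosing was 11 threefold dilutions starting at a final 46 μM. After 48 h, CellTiter-Glo was added for 30 min at room temperature and luminescence read on a ViewLux. Log half-maximal activity concentration came from a four-parameter fit of DMSO-normalised viability, keeping only high-quality curve classes.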

Point of comparison: `CCCCC[C@H](O)/C=C/[C@H]1[C@H](O)CC(=O)[C@@H]1C/C=C\CCCC(=O)O` [Prostaglandin E2], “AC50 for growth inhibition (log10 M)” value -5.18. Against it:
- CCCCCCCCOc1ccccc1C(=O)Nc1ccc(C(=O)OCC[N+](C)(CC)CC)cc1 [Octylonium bromide] — higher, -4.68
- CC1COC2=C3N1\C=C(C(O)=O)/C(=O)C3=CC(=C2N4CCN(C)CC4)F (stereo not given) [Ofloxacin] — higher, -4.73
- CC[C@H]1/C=C\C=C/C[C@@H](C)[C@H](O)[C@@](C)(O)C(=O)[C@@H](C)[C@H](O)[C@@H](C)C(=O)[C@@H](C)[C@H](O)[C@@H](C)/C=C/C(=O)O[C@@H]2[C@H](C)[C@H](CC1)O[C@]1(CC[C@H](C)[C@H](C[C@@H](C)O)O1)[C@H]2C [Oligomycin A] — lower, -8.83
- CN(CC#C)C/C1=C/C2=CC=CC=C2OC3=CC=CC=C13 [Omigapil] — higher, -4.63
- CCCCCCCCCCCC(CC1OC(=O)C1CCCCCC)OC(=O)C(CC(C)C)NC=O (stereo not given) [Orlistat] — higher, -4.78
- COC(=O)Nc1nc2ccc([S+]([O-])c3ccccc3)cc2[nH]1 (stereo not given) [Oxfendazole] — higher, -4.63
- CCCOc1ccc2[nH]c(NC(=O)OC)nc2c1 [Oxibendazole] — lower, -7.83
- O=[N+]([O-])c1cn2c(n1)OC[C@@H](OCc1ccc(OC(F)(F)F)cc1)C2 [PA-824] — within 0.2 log units, -5.33
- COc1ccc(-c2c(-c3ccc(O)cc3O)n[nH]c2C)cc1 [PDHK RIKEN] — higher, -4.37
- FC1=CC=C(CN2\C=C/C=C(/C(=O)N[C@@H](COC3=CC4=C(NC(=O)N4)C=C3)C5=CC=CC=C5)C2=O)C=C1F [PDK1 inhibitor] — higher, -4.68
- O=C(Nc1cccnc1)N1CCC(Cc2cccc(Oc3ccc(C(F)(F)F)cn3)c2)CC1 [PF-3845] — higher, -4.78
- CC(=O)Nc1nc(C)c(-c2ccc(Cl)c([S+](=O)([O-])NCCO)c2)s1 [PIK-93] — lower, -5.83
- CCC[S+](=O)([O-])Nc1ccc(F)c(C(=O)c2c[nH]c3ncc(Cl)cc23)c1F [PLX-4720] — higher, -4.83
- O=C(Nc1cc(Cl)cc2c1[nH]c1cnccc12)c1cccnc1 [PS-1145] — higher, -4.73
- O=C(O)c1cccc(-c2noc(-c3ccccc3F)n2)c1 [PTC-124] — higher, -4.83
- CC(=O)O[C@H]1C[C@@H]2CC[C@@H]3[C@H](CC[C@@]4(C)[C@H]3C[C@H]([N+]3(C)CCCCC3)[C@@H]4OC(C)=O)[C@@]2(C)C[C@@H]1[N+]1(C)CCCCC1 [Pancuronium bromide] — lower, -5.53
- CCCCc1ccc2[nH]c(NC(=O)OC)nc2c1 [Parbendazole] — lower, -6.83
- Cc1ccc(Nc2nccc(N(C)c3ccc4c(C)n(C)nc4c3)n2)cc1[S+](N)(=O)[O-] [Pazopanib] — higher, -4.78
- CSCC[C@H](NC(=O)[C@H](Cc1c[nH]c2ccccc12)NC(=O)CCNC(=O)OC(C)(C)C)C(=O)N[C@@H](CC(=O)O)C(=O)N[C@@H](Cc1ccccc1)C(N)=O [Pentagastrin] — within 0.2 log units, -5.28
- N=C(N)c1ccc(OCCCCCOc2ccc(C(=N)N)cc2)cc1 [Pentamidine isethionate] — higher, -4.83
- OC[C@H]1O[C@H](C[C@@H]1O)[N]2C=NC3=C2\N=C/NC[C@H]3O [Pentostatin] — higher, -4.68
- N=C(N)NC(=N)NCCc1ccccc1 [Phenformin hydrochloride] — lower, -5.88
- COc1cc([C@@H]2c3cc4c(cc3[C@H](O)[C@H]3COC(=O)[C@H]23)OCO4)cc(OC)c1OC [Picropodophyllin] — lower, -8.43
- O=C([O-])C[C@H](O)C[C@H](O)/C=C/c1c(C2CC2)nc2ccccc2c1-c1ccc(F)cc1 [Pitavastatin calcium] — within 0.2 log units, -5.03
- CC[C@@H]([C@H](C)O)n1ncn(-c2ccc(N3CCN(c4ccc(OCC5CO[C@@](Cn6cncn6)(c6ccc(F)cc6F)C5)cc4)CC3)cc2)c1=O (stereo not given in full) [Posaconazole] — higher, -4.73
- CC(=O)Oc1cc2c(s1)CCN(C(C(=O)C1CC1)c1ccccc1F)C2.Cl (stereo not given) [Prasugrel] — lower, -6.08
- CC(=O)[C@H]1CC[C@H]2[C@@H]3C/C=C4/C[C@@H](O)CC[C@]4(C)[C@H]3CC[C@]12C [Pregnenolone] — higher, -4.88
- CC(C)(Sc1cc(C(C)(C)C)c(O)c(C(C)(C)C)c1)Sc1cc(C(C)(C)C)c(O)c(C(C)(C)C)c1 [Probucol] — lower, -5.58
- CC(=O)[C@H]1CC[C@H]2[C@@H]3CCC4=CC(=O)CC[C@]4(C)[C@H]3CC[C@]12C [Progesterone] — higher, -4.78
- C[C@@H]1O[C@@H](O[C@H]\2CC[C@]\3(C)[C@@H]4CC[C@]5(C)[C@@H](CC[C@@]5(O)[C@H]4CCC3=C2)C/6=C/OC(=O)/C=C6)[C@H](O)[C@H](O)[C@@H]1O [Proscillaridin] — lower, -7.68
- COCCCN1CCC(NC(=O)c2cc(Cl)c(N)c3c2OCC3)CC1 [Prucalopride] — higher, -4.58
- CC(C)[C@H](CO)Nc1nc(Nc2cccc(Cl)c2)c2ncn(C(C)C)c2n1 [Purvalanol A] — higher, -4.68
- COc1cc(Nc2ncc(F)c(Nc3ccc4c(n3)NC(=O)C(C)(C)O4)n2)cc(OC)c1OC [R406] — higher, -4.63
- OCc1ccc(-c2ccc(-c3ccc(CO)s3)o2)s1 [RITA] — higher, -4.93
- CCOC(=O)Nc1ccc(NCc2ccc(F)cc2)cc1N [Retigabine] — higher, -4.83
- CO[C@H]1/C=C/O[C@@]2(C)Oc3c(C)c(O)c4c(c3C2=O)C2=NC3(CCN(CC(C)C)CC3)NC2=C(NC(=O)/C(C)=C\C=C\[C@H](C)[C@H](O)[C@@H](C)[C@@H](O)[C@@H](C)[C@H](OC(C)=O)[C@@H]1C)C4=O [Rifabutin] — higher, -4.63
- Nc1nc2ccc(OC(F)(F)F)cc2s1 [Riluzole] — higher, -4.73
- O=C(C[C@@H]1C/C=C\CCC(=O)O[C@H](c2ccccc2)CNC1=O)NCc1ccc(Cl)cc1 [Robotnikinin] — lower, -5.43
- [O-]C(=O)C1=C(C(=C(Cl)C(=C1Cl)Cl)Cl)C/2=C/3\C=C(I)/C(=O)/C(=C3OC4=C2C=C(I)C(=C4I)[O-])I [Rose Bengal disodium] — higher, -4.93
- CN(CCOc1ccc(CC2SC(=O)NC2=O)cc1)c1ccccn1 (stereo not given) [Rosiglitazone] — the same, -5.18
- O=C1N\2CCC3=C([NH]C4=C3C=CC=C4)C2=N/C5=CC=CC=C15 [Rutaecarpine] — higher, -4.78
- N#CC[C@H](C1CCCC1)n1cc(-c2ncnc3[nH]ccc23)cn1 [Ruxolitinib] — higher, -4.73
- CC(C)(C)c1cc(C(=O)O)c(NC(=O)Nc2ccc3[nH]ncc3c2)s1 [S6K-18] — higher, -4.88
- Fc1ccc(Cl)cc1-c1nc(Nc2ccncc2)c2nccnc2n1 [SD-208] — higher, -4.93
- O=C1NC(=O)/C(=C/c2cccc(C(F)(F)F)c2)S1 [SMI-4a] — higher, -4.83
- CC(C)(C)c1cnc(CSc2cnc(NC(=O)C3CCNCC3)s2)o1 [SNS-032] — lower, -7.18
- Cc1c(C)n(Cc2ccc(-c3ccccc3C(=O)O)cc2)c2ccc(C(=O)N[C@@H](C)c3ccc([N+](=O)[O-])cc3)cc12 [SR1664] — higher, -4.68
- CCCCCNC(=O)N1CCC(CN(Cc2ccc(Cl)cc2)Cc2ccc([N+](=O)[O-])s2)C1 (stereo not given) [SR9011] — higher, -4.73
- CNC(=O)CN1CCC(Oc2cc3c(Nc4cccc(Cl)c4F)ncnc3cc2OC)CC1 [Sapitinib] — lower, -7.98
- N#C[C@@H]1C[C@@H]2C[C@@H]2N1C(=O)[C@@H](N)C12CC3CC(CC(O)(C3)C1)C2 [Saxagliptin] — higher, -4.98
- CC[C@H](CO)Nc1nc(NCc2ccccc2)c2ncn(C(C)C)c2n1 [Seliciclib] — higher, -4.68
- c1cc2c(cc1[C@H]1OC[C@H]3[C@@H]1CO[C@@H]3c1ccc3c(c1)OCO3)OCO2 [Sesamin] — within 0.2 log units, -5.33
- CC(C)CC(N(C)C)C1(c2ccc(Cl)cc2)CCC1 (stereo not given) [Sibutramine hydrochloride] — higher, -4.73
- O=C(O)c1ccc2c(c1)nc(Nc1cccc(Cl)c1)c1ccncc12 [Silmitasertib] — higher, -4.93
- COc1cc([C@H]2Oc3cc([C@H]4Oc5cc(O)cc(O)c5C(=O)[C@@H]4O)ccc3O[C@@H]2CO)ccc1O [Silybin] — higher, -4.78
- CCC(C)(C)C(=O)O[C@H]1C[C@@H](C)\C=C2\C=C/[C@H](C)[C@H](CC[C@@H]3C[C@@H](O)CC(=O)O3)[C@@H]12 [Simvastatin] — higher, -4.78
- Cc1onc(-c2ccccc2Cl)c1C(=O)N[C@@H]1C(=O)N2[C@@H]1SC(C)(C)[C@@H]2C(=O)[O-] [Sodium cloxacillin] — lower, -5.48
- O=C1\C=C/C[C@@H]2[C@H]3CCCN4CCC[C@@H](CN12)[C@@H]34 [Sophocarpine] — higher, -4.78
- Fc1ccc(CNc2ncnc3ccc(F)cc23)cc1 [Spautin-1] — lower, -5.48
- Cc1cn([C@H]2C=C[C@@H](CO)O2)c(=O)[nH]c1=O [Stavudine] — higher, -4.37
- CC[C@H](/C=C/[C@@H](C)[C@H]1CC[C@H]2[C@@H]3CC=C4C[C@@H](O)CC[C@]4(C)[C@H]3CC[C@]12C)C(C)C [Stigmasterol] — within 0.2 log units, -5.19
- CC1(C)[C@H](C(=O)O)N2C(=O)C[C@H]2[S+]1(=O)[O-] [Sulbactam] — higher, -4.83
- Cc1nnc(N[S+](=O)([O-])c2ccc(N)cc2)s1 [Sulfamethizole] — lower, -5.43
- CCc1nc(-c2cccc(C)c2)c(-c2ccnc(NC(=O)c3ccccc3)c2)s1 [TAK-715] — higher, -4.78
